Assay results from patent EP0624573A1, “Iodo vitamin D3 compounds and method for preparing same” (WISCONSIN ALUMNI RESEARCH FOUNDATION, priority 1993, dated 1994).

Tests used:
[1] = test system: HL-60 cells; test: HL-60 differentiation assay, NBT (nitroblue tetrazolium reduction); assay type: cell-based, human; details: for percent of HL-60 cells having differentiated to monocytes: NBT assay, concentration of 1 x 10⁻⁷ molar (Fig. 1); for potency in promoting the differentiation of leukemia cells: in words, compared with 1α,25-dihydroxyvitamin D₃ (Fig. 1)
Description: This is illustrated by the biological assay results obtained for the claimed 22-iodo-vitamin D₃ compounds, which are summarized in Figs. 1 and 2, and Table 1. […] Differentiation activity was assessed by a standard differentiation assay, abbreviated in Fig. 1 as NBT (nitroblue tetrazolium reduction). The assay was conducted according to known procedures, as given, for example, by DeLuca et al U. S. Patent 4,717,721 and Ostrem et al, J. Biol. Chem. 262, 14164, 1987. For the assay, the differentiation activity of the test compounds is expressed in terms of the percent of HL-60 cells having differentiated to monocytes in response to a given concentration of test compound.

[2] = Intestinal calcium transport in vitamin D-deficient, low calcium diet rats; assay type: in vivo; details: for Intestinal Calcium Transport (Serosal/Mucosal Ratio): duodenum on day 7
Description: (§1) Rats were fed the vitamin D-deficient, low calcium (0.02%) diet for 3 weeks and then given the indicated dose in 0.1 ml propylene glycol:ethanol (95:5) intraperitoneally each day for 6 days. On day 7, serum was analyzed for calcium and the duodenum used to measure intestinal calcium transport as described by Martin et al. Am. J. Physiol.

[3] = Bone calcium mobilization (serum calcium) in vitamin D-deficient, low calcium diet rats; assay type: in vivo; details: for Bone Calcium Mobilization (Serum Calcium): serum on day 7
Description: as §1

[4] = dose 1.0 µg/d/6 days intraperitoneally
[5] = dose 0.1 µg/d/6 days intraperitoneally

Row | SMILES | percent of HL-60 cells having differentiated to monocytes [1] | potency in promoting the differentiation of leukemia cells [1] | biological activity in intestinal calcium transport relative to that of 1,25-(OH)₂D₃ ([2]; Table 1 (1.0 µg/d versus 0.1 µg/d of 1,25-(OH)₂D₃)) | Intestinal Calcium Transport (Serosal/Mucosal Ratio) [2, 4] | Bone Calcium Mobilization (Serum Calcium) [3, 4] [mg/100 ml] | bone calcium mobilizing activity ([3]; in words, 1µg per day for six days) | Intestinal Calcium Transport (Serosal/Mucosal Ratio) [2, 5] | Bone Calcium Mobilization (Serum Calcium) [3, 5] [mg/100 ml]
1 | C=C1/C(=C\C=C2/CCC[C@]3(C)[C@@H]([C@H](C)[C@H](I)CCC(C)(C)O)CC[C@@H]23)C[C@@H](O)C[C@@H]1O [compound 11, (22R)-iodo-1α,25-dihydroxyvitamin D₃] | the same degree of differentiation | as potent as 1α,25-dihydroxyvitamin D₃ |  |  |  |  |  | 
2 | C=C1/C(=C\C=C2/CCC[C@]3(C)[C@@H]([C@H](C)[C@@H](I)CCC(C)(C)O)CC[C@@H]23)C[C@@H](O)C[C@@H]1O [compound 9, (22S)-iodo-1α,25-dihydroxyvitamin D₃] | the same degree of differentiation | as potent as 1α,25-dihydroxyvitamin D₃ | about double | 22.8 ± 1.4 | 4.9 ± 0.1 | little or no bone calcium mobilizing activity |  | 
3 | C=C1/C(=C\C=C2/CCC[C@]3(C)[C@@H]([C@H](C)CCCC(C)(C)O)CC[C@@H]23)C[C@@H](O)C[C@@H]1O [1,25-(OH)₂D₃, 1α,25-dihydroxyvitamin D₃, reference compound] | ~90% |  |  |  |  |  | 11.2 ± 1.2 | 5.9 ± 0.3
